The values below come from the supplement of paper PMC10627819.

Experiment in all cases: Bliss interaction score (quartile over a dose matrix) (fitness difference); higher = more antagonism (negative = synergy)
One experiment concerns S. aureus Newman. The method, boiled down:
(§1)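 The Bliss score was calculated by subtracting the expected fitness, the product of single-drug values, from the observed fitness. OD595 at entry into stationary phase, over the plate's robust no-drug mean and capped at 1, served as the fitness readout. Single-drug values were inferred from combination data, and scores are summarised by quartiles across technical, biological and donor/recipient replicates.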

The next experiment deals with B. subtilis 168. The method, boiled down: as §1
For another experiment, the system named is S. pneumoniae D39V. The method, boiled down:
as §1

The next experiment deals with S. aureus DSM 20231. The method, boiled down: as §1

Molecules are shown by their SMILES.
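Note: first quartile when negative (synergy) and third quartile when positive (antagonism).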

Turning to `O=C(O)[C@H]1/C(=C/CO)O[C@@H]2CC(=O)N21` [Clavulanic] + COc1cc(Cc2cnc(N)nc2N)cc(OC)c1OC [Trimethoprim], the Bliss interaction score with S. aureus Newman is 0.221; with B. subtilis 168 it was 0.101; in the experiment with S. pneumoniae D39V, 0.116; in the experiment with S. aureus DSM 20231 it was -0.186.
On to `O=C(O)[C@H]1/C(=C/CO)O[C@@H]2CC(=O)N21` [Clavulanic] + COc1ccc(C[C@H](N)C(=O)N[C@H]2[C@@H](O)[C@H](n3cnc4c(N(C)C)ncnc43)O[C@@H]2CO)cc1 [Puromycin], for which the Bliss interaction score is -0.0706 with S. aureus Newman, 0.0481 with B. subtilis 168, 0.0764 in the experiment on S. pneumoniae D39V and 0.0964 with S. aureus DSM 20231.
For `O=C(O)[C@H]1/C(=C/CO)O[C@@H]2CC(=O)N21` [Clavulanic] + COc1cccc2c1C(=O)c1c(O)c3c(c(O)c1C2=O)C[C@@](O)(C(=O)CO)C[C@@H]3O[C@H]1C[C@H](N)[C@H](O)[C@H](C)O1 [Doxorubicin], in that order: 0.0836, 0.067, 0.0444 and 0.0451.
With `O=C(O)[C@H]1/C(=C/CO)O[C@@H]2CC(=O)N21` [Clavulanic] + C[C@@H]1O[C@@H]1P(=O)(O)O [Fosfomycin], the Bliss interaction score was 0.258 in the experiment on S. aureus Newman, -0.089 in the experiment with B. subtilis 168, -0.0291 with S. pneumoniae D39V and 0.0474 with S. aureus DSM 20231.
As for `O=C(O)[C@H]1/C(=C/CO)O[C@@H]2CC(=O)N21` [Clavulanic] + C[C@@H](O)[C@H]1C(=O)N2C(C(=O)O)=C(SCCNC=N)C[C@H]12 [Imipenem], the Bliss interaction score is -0.0736 in the experiment with S. aureus Newman, 0.108 with B. subtilis 168, 0.0559 in the experiment with S. pneumoniae D39V and 0.094 with S. aureus DSM 20231.
`O=C(O)[C@H]1/C(=C/CO)O[C@@H]2CC(=O)N21` [Clavulanic] + C[C@H]1COc2c(N3CCN(C)CC3)c(F)cc3c(=O)c(C(=O)O)cn1c23 [Levofloxacin]: the Bliss interaction score in the experiment on S. aureus Newman is 0.242; in the experiment on B. subtilis 168 it was -0.024; in the experiment with S. pneumoniae D39V, -0.197; in the experiment with S. aureus DSM 20231, -0.222.
In the case of `O=C(O)[C@H]1/C(=C/CO)O[C@@H]2CC(=O)N21` [Clavulanic] + C[C@H]1c2cccc(O)c2C(=O)C2=C(O)[C@]3(O)C(=O)C(C(N)=O)=C(O)[C@@H](N(C)C)[C@@H]3[C@@H](O)[C@@H]21 [Doxycycline], the Bliss interaction score in the experiment with S. aureus Newman is 0.268; in the experiment with B. subtilis 168 it was 0.0656; in the experiment on S. pneumoniae D39V, -0.0431; in the experiment on S. aureus DSM 20231, -0.273.
Consider `O=C(O)[C@H]1/C(=C/CO)O[C@@H]2CC(=O)N21` [Clavulanic] + C[n+]1ccc(-c2cc[n+](C)cc2)cc1 [Paraquat], for which the Bliss interaction score in the experiment on S. aureus Newman was -0.0709; in the experiment with B. subtilis 168 it was -0.0541; with S. pneumoniae D39V, 0.0522; in the experiment with S. aureus DSM 20231, 0.0962.
The like results for `O=C(O)[C@H]1/C(=C/CO)O[C@@H]2CC(=O)N21` [Clavulanic] + Cc1cc(NS(=O)(=O)c2ccc(N)cc2)no1 [Sulfamethoxazol] were, in that order, -0.0365, 0.0509, 0.0674 and 0.0966.
`O=C(O)[C@H]1/C(=C/CO)O[C@@H]2CC(=O)N21` [Clavulanic] + Cc1ncc([N+](=O)[O-])n1CCO [Metronidazole]: the Bliss interaction score in the experiment on S. aureus Newman was -0.112; with B. subtilis 168, 0.0385; in the experiment with S. pneumoniae D39V, 0.0632; with S. aureus DSM 20231, 0.0966.
For the compound `O=C(O)[C@H]1/C(=C/CO)O[C@@H]2CC(=O)N21` [Clavulanic] + Cc1onc(-c2ccccc2)c1C(=O)N[C@@H]1C(=O)N2[C@@H]1SC(C)(C)[C@@H]2C(=O)O [Oxacillin], the Bliss interaction score in the experiment on S. aureus Newman is 0.0727; in the experiment with B. subtilis 168, 0.0555; in the experiment on S. pneumoniae D39V it was -0.051; in the experiment with S. aureus DSM 20231 it was 0.0346.
Take `O=C(O)[C@H]1/C(=C/CO)O[C@@H]2CC(=O)N21` [Clavulanic] + Clc1ccc(COC(Cn2ccnc2)c2ccc(Cl)cc2Cl)c(Cl)c1 [Miconazole]: the Bliss interaction score is -0.0736 in the experiment with S. aureus Newman, 0.0639 with B. subtilis 168, 0.0698 in the experiment on S. pneumoniae D39V and 0.101 in the experiment with S. aureus DSM 20231.
For the compound `O=C(O)[C@H]1/C(=C/CO)O[C@@H]2CC(=O)N21` [Clavulanic] + Cn1nnc(-c2ccc(-c3ccc(N4C[C@H](CO)OC4=O)cc3F)cn2)n1 [Tedizolid], the Bliss interaction score was 0.255 with S. aureus Newman, 0.0942 in the experiment on B. subtilis 168, -0.0878 in the experiment with S. pneumoniae D39V and -0.18 in the experiment on S. aureus DSM 20231.
On to `O=C(O)[C@H]1/C(=C/CO)O[C@@H]2CC(=O)N21` [Clavulanic] + N[C@@H]1CONC1=O [CycloserineD], for which the Bliss interaction score in the experiment with S. aureus Newman was -0.0992; in the experiment with B. subtilis 168, 0.0614; in the experiment on S. pneumoniae D39V, -0.0906; in the experiment on S. aureus DSM 20231, 0.116.
`O=C(O)[C@H]1/C(=C/CO)O[C@@H]2CC(=O)N21` [Clavulanic] + O=C1CN(/N=C/c2ccc([N+](=O)[O-])o2)C(=O)N1 [Nitrofurantoin]: the Bliss interaction score in the experiment on S. aureus Newman was 0.102; with B. subtilis 168 it was 0.0868; in the experiment on S. pneumoniae D39V, 0.0879; with S. aureus DSM 20231, 0.039.
For `O=C(O)[C@H]1/C(=C/CO)O[C@@H]2CC(=O)N21` [Clavulanic] + O=C(O[C@@H]1Cc2c(O)cc(O)cc2O[C@@H]1c1cc(O)c(O)c(O)c1)c1cc(O)c(O)c(O)c1 [EGCG], in that order: 0.168, -0.0667, 0.0628 and 0.0689.
The like results for `O=C(O)[C@H]1/C(=C/CO)O[C@@H]2CC(=O)N21` [Clavulanic] + Oc1cc(Cl)ccc1Oc1ccc(Cl)cc1Cl [Triclosan] were, in that order, -0.0656, 0.0658, 0.0445 and 0.081.
In the case of `CNC(C)C1CCC(N)C(OC2C(N)CC(N)C(OC3OCC(C)(O)C(NC)C3O)C2O)O1` (stereo unspecified) [Gentamicin] + CC1(C)S[C@@H]2[C@H](NC(=O)Cc3ccccc3)C(=O)N2[C@H]1C(=O)O [PenicillinG], the Bliss interaction score is -0.0512 in the experiment on S. aureus Newman (main component drawn), 0.0952 with B. subtilis 168 (main component drawn), 0.0914 with S. pneumoniae D39V (main component drawn) and 0.0582 in the experiment with S. aureus DSM 20231 (main component drawn).
Turning to `CNC(C)C1CCC(N)C(OC2C(N)CC(N)C(OC3OCC(C)(O)C(NC)C3O)C2O)O1` (stereo unspecified) [Gentamicin] + CC[C@H]1OC(=O)[C@H](C)C(=O)[C@H](C)[C@@H](O[C@@H]2O[C@H](C)C[C@H](N(C)C)[C@H]2O)[C@](C)(OC)C[C@@H](C)C(=O)[C@H](C)[C@H]2N(CCCCn3cnc(-c4cccnc4)c3)C(=O)O[C@]12C [Telithromycin], the Bliss interaction score in the experiment with S. aureus Newman (main component drawn) worked out at 0.0544; in the experiment on B. subtilis 168 (main component drawn), 0.0903; in the experiment with S. pneumoniae D39V (main component drawn) it was 0.0542; in the experiment on S. aureus DSM 20231 (main component drawn) it was 0.0492.
